How the values were obtained:
[1] = test system: cardiomyocytes generated from mouse tail tip fibroblasts (TTFs); experiment: β-adrenergic and muscarinic stimulation of induced cardiomyocytes (beating, Ca2+ transients); type: cell-based; conditions: applied locally
Procedure: Myocytes were loaded with 5 μM Fluo-4 AM (Molecular Probes, Invitrogen Corp, Carlsbad, Calif.), a Ca^++ indicator dye for 20 minutes at room temperature followed by 20 minutes in dye-free extracellular solution to allow for Fluo-4 de-esterification prior to commencing recordings. Ca^++ transients were recorded via a standard filter set (#49011 ET, Chroma Technology Corp., Bellows Falls, Vt.) and a photomultiplier-based recording system (lonOptix PMT400, Milton, Mass.). Fluorescence was recorded simultaneously from an entire myocyte cluster. Between sampling periods, excitation light was blocked by a shutter (CS35; Vincent Associates, Rochester, N.Y.) and background fluorescence was recorded after removing the cell(s) from the field of view at the end. Where applicable, 1 μM isoproterenol (Iso) or 25 μM carbachol (Cch) were applied locally (to the cell cluster of interest) using a perfusion pencil (AutoMate Scientific, Berkeley, Calif.).
Intact […] nervous system responses to hormones and transmitters are one of the most critical characteristics of normal cardiomyocytes. […] After washing out carbachol, cells resumed contracting and the Ca^2+ transients immediately returned to normal (FIG. 4H).

SAPK2/p38 = SAPK2/p38 (Homo sapiens, UniProt Q16539); conditions: CK1 and ALK5 inhibitor versus SAPK2/p38; cited from earlier work
Chain of SAPK2/p38 (Q16539 whole entry): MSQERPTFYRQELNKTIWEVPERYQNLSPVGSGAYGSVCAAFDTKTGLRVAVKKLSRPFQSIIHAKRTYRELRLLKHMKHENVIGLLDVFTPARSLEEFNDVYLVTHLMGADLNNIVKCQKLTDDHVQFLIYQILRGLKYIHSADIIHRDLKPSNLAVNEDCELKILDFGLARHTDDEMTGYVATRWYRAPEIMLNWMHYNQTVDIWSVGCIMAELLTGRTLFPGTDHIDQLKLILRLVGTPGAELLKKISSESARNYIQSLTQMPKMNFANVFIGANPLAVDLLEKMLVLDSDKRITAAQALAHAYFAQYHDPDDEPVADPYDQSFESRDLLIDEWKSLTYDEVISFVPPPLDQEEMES

adenylate cyclase 1 = adenylate cyclase 1 (Homo sapiens, UniProt Q08828); conditions: cited from earlier work
Chain of adenylate cyclase 1 (Q08828 whole entry): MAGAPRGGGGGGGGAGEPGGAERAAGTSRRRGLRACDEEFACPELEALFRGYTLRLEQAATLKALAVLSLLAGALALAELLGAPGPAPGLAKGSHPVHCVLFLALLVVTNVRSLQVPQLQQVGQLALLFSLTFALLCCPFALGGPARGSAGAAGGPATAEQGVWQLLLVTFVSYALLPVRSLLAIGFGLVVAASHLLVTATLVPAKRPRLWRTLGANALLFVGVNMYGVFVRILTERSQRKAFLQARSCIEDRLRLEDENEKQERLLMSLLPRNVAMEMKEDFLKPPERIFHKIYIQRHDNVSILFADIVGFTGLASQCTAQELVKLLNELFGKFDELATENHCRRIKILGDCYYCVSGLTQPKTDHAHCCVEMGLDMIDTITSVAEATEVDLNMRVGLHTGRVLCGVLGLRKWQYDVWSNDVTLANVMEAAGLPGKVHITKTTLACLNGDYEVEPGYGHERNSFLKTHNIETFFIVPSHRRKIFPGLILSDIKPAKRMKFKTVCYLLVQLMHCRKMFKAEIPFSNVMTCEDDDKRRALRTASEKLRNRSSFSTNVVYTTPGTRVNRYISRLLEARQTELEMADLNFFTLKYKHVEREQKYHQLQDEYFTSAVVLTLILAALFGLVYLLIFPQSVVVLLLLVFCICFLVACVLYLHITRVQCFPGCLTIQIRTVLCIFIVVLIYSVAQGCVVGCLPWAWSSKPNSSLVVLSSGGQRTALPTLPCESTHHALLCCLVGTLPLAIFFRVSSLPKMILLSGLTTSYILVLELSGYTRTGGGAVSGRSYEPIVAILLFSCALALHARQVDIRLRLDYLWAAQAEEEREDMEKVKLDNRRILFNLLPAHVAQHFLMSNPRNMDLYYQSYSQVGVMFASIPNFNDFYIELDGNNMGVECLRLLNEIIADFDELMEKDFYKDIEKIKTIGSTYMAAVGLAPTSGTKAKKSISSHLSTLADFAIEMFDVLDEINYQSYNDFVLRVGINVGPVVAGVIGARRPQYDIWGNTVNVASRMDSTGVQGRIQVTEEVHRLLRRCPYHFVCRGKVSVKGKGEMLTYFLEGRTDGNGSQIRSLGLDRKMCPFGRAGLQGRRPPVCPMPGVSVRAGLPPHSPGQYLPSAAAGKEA

## C[N+](C)(C)CCOC(N)=O [carbachol]
[1]; 25 μM, reversible on wash-out
  frequency of cell contracting and spontaneous calcium transients: opposite effect

## NC(=O)c1ccc(-c2nc(-c3ccc4c(c3)OCCO4)c(-c3ccccn3)[nH]2)cc1 [D 4476, 4-[4-(2,3-Dihydro-1,4-benzodioxin-6-yl)-5-(2-pyridinyl)-1H-imidazol-2-yl]benzamide]
SAPK2/p38
  selectivity over SAPK2/p38: greater than 20 fold

## CC(C)NCC(O)c1ccc(O)c(O)c1 (stereo not shown) [isoproterenol]
[1]; 1 μM
  frequency of cell contracting and spontaneous calcium transients: significantly increased

## C=C[C@@]1(C)CC(=O)[C@]2(O)[C@@]3(C)[C@@H](O)CCC(C)(C)[C@@H]3[C@H](O)[C@H](OC(C)=O)[C@@]2(C)O1 [Forskolin]
Adenylate cyclase 1
  IC50: 40 to 150 nM

From patent US10144915B2, “Reprogramming fibroblasts into cardiomyocytes” (The J. David Gladstone Institutes, a testamentary trust …, priority 2013, dated 2018)
